molecular target: T1, human NK3 receptor (Homo sapiens, UniProt P29371); test: [3H]SR142801 competition binding assay; details: not given
T1 construct: expressed in transfected cells; host or cells: HEK293 cells, transiently transfected; membranes
T1 sequence (P29371 1-465): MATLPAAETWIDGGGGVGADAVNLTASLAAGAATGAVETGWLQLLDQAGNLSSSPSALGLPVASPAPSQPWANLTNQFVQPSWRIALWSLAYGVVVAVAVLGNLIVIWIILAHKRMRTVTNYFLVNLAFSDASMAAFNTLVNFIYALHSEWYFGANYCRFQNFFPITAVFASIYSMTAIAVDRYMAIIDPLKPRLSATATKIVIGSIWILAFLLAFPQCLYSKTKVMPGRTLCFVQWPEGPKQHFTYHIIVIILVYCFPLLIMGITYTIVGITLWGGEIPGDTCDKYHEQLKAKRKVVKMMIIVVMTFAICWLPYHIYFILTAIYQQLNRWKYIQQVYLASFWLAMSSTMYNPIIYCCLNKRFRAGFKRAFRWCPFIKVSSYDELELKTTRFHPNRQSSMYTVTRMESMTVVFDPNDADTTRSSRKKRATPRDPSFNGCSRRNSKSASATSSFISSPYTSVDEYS
In short: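 Membranes from HEK293 cells transiently expressing human NK3 receptor incubated 75 min at RT with [3H]SR142801 at its KD and compound (0.0003-10 μM) in pH 7.4 Tris/MnCl2 buffer. Filtration and scintillation counting, nonspecific binding with 10 μM SB222200. IC50 from Hill fit, Ki by Cheng-Prusoff, duplicates.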

Compound	Ki
CN(CCc1ccccc1)C(=O)C(CCN1CCC2(CC1)OC(=O)N(C)c1ccc(F)cc12)c1ccc(Cl)c(Cl)c1 (centres unmarked) [Example 90, 2-(3,4-dichlorophenyl)-4-(6-fluoro-1-methyl-2-oxo-1,2-dihydro-1′H-spiro[3,1-benzoxazine-4,4′-piperidin]-1′-yl)-N-metyl-N-(2-phenylethyl)butanamide]	8 nM
CN1C(=O)OC2(CCN(CCC(C(=O)NCc3ccc(-n4cccn4)cc3)c3ccc(Cl)c(Cl)c3)CC2)c2cc(F)ccc21 (centres unmarked) [Example 94, 2-(3,4-dichlorophenyl)-4-(6-fluoro-1-methyl-2-oxo-1,2-dihydro-1′H-spiro[3,1-benzoxazine-4,4′-piperidin]-1′-yl)-N-[4-(1H-pyrazol-1-yl)benzyl]butanamide]	87.7 nM
CN(Cc1ccc(-c2ccncc2)cc1)C(=O)C(CCN1CCC2(CC1)OC(=O)N(C)c1ccc(F)cc12)c1ccc(Cl)c(Cl)c1 (centres unmarked) [Example 97, 2-(3,4-dichlorophenyl)-4-(6-fluoro-1-methyl-2-oxo-1,2-dihydro-1′H-spiro[3,1-benzoxazine-4,4′-piperidin]-1′-yl)-N-methyl-N-(4-pyridin-4-ylbenzyl)butanamide]	9.4 nM

same assay, conditions: [3H]SR142801 displacement, membranes of HEK293 cells transiently expressing recombinant human NK3 receptor; read-out: hNK3 Ki

Compound	Ki
Cc1ccc(CN(C)C(=O)C(CCN2CCC3(CC2)OC(=O)N(C)c2ccc(F)cc23)c2ccc(Cl)c(Cl)c2)cc1 (centres unmarked) [Example 102, 2-(3,4-dichlorophenyl)-4-(6-fluoro-1-methyl-2-oxo-1,2-dihydro-1′H-spiro[3,1-benzoxazine-4,4′-piperidin]-1′-yl)-N-methyl-N-(4-methylbenzyl)butanamide]	2.1 nM
CN1C(=O)OC2(CCN(CCC(C(=O)NCc3ccc(-c4csnn4)cc3)c3ccc(Cl)c(Cl)c3)CC2)c2cc(F)ccc21 (centres unmarked) [Example 109, 2-(3,4-dichlorophenyl)-4-(6-fluoro-1-methyl-2-oxo-1,2-dihydro-1′H-spiro[3,1-benzoxazine-4,4′-piperidin]-1′-yl)-N-[4-(1,2,3-thiadiazol-4-yl)benzyl]butanamide]	19 nM
Cc1ccsc1CNC(=O)C(CCCN1CCC2(CC1)OC(=O)Nc1ccc(F)cc12)c1ccc(Cl)c(Cl)c1 (centres unmarked) [Example 116, 2-(3,4-dichlorophenyl)-5-(6-fluoro-2-oxo-1,2-dihydro-1′H-spiro[3,1-benzoxazine-4,4′-piperidin]-1′-yl)-N-[(3-methyl-2-thienyl)methyl]pentanamide]	66.8 nM

same assay, conditions: hNK3 Ki, [3H]SR142801 displacement, membranes of HEK293 cells transiently expressing recombinant human NK3 receptor

Compound	Ki
CN(Cc1ccccc1)C(=O)C(CCN1CCC2(CC1)OC(=O)N(C)c1ccc(F)cc12)c1ccc(Cl)c(Cl)c1 (centres unmarked) [Example 89, N-benzyl-2-(3,4-dichlorophenyl)-4-(6-fluoro-1-methyl-2-oxo-1,2-dihydro-1′H-spiro[3,1-benzoxazine-4,4′-piperidin]-1′-yl)-N-methyl-butanamide]	0.8 nM
CN1C(=O)OC2(CCN(CCC(C(=O)NCc3ccccc3OC(F)(F)F)c3ccc(Cl)c(Cl)c3)CC2)c2cc(F)ccc21 (centres unmarked) [Example 91, 2-(3,4-dichlorophenyl)-4-(6-fluoro-1-methyl-2-oxo-1,2-dihydro-1′H-spiro[3,1-benzoxazine-4,4′-piperidin]-1′-yl)-N-[2-(trifluoromethoxy)benzyl]butanamide]	6.5 nM
CN1C(=O)OC2(CCN(CCC(C(=O)NCc3cccc(OC(F)F)c3)c3ccc(Cl)c(Cl)c3)CC2)c2cc(F)ccc21 (centres unmarked) [Example 92, 2-(3,4-dichlorophenyl)-N-[3-(difluoromethoxy)benzyl]-4-(6-fluoro-1-methyl-2-oxo-1,2-dihydro-1′H-spiro[3,1-benzoxazine-4,4′-piperidin]-1′-yl)butanamide]	2.8 nM
CN(Cc1ccc(C(F)(F)F)cc1)C(=O)C(CCN1CCC2(CC1)OC(=O)N(C)c1ccc(F)cc12)c1ccc(Cl)c(Cl)c1 (centres unmarked) [Example 93, 2-(3,4-dichlorophenyl)-4-(6-fluoro-1-methyl-2-oxo-1,2-dihydro-1′H-spiro[3,1-benzoxazine-4,4′-piperidin]-1′-yl)-N-methyl-N-[4-(trifluoromethyl)benzyl]butanamide]	0.6 nM
CN(Cc1ccc(N2CCOCC2)cc1)C(=O)C(CCN1CCC2(CC1)OC(=O)N(C)c1ccc(F)cc12)c1ccc(Cl)c(Cl)c1 (centres unmarked) [Example 95, 2-(3,4-dichlorophenyl)-4-(6-fluoro-1-methyl-2-oxo-1,2-dihydro-1′H-spiro[3,1-benzoxazine-4,4′-piperidin]-1′-yl)-N-methyl-N-(4-morpholin-4-ylbenzyl)butanamide]	28.8 nM
COc1ccc(CN(C)C(=O)C(CCN2CCC3(CC2)OC(=O)N(C)c2ccc(F)cc23)c2ccc(Cl)c(Cl)c2)cc1F (centres unmarked) [Example 99, 2-(3,4-dichlorophenyl)-N-(3-fluoro-4-methoxybenzyl)-4-(6-fluoro-1-methyl-2-oxo-1,2-dihydro-1′H-spiro[3,1-benzoxazine-4,4′-piperidin]-1′-yl)-N-methyl-butanamide]	2.4 nM
COc1cc(CN(C)C(=O)C(CCN2CCC3(CC2)OC(=O)N(C)c2ccc(F)cc23)c2ccc(Cl)c(Cl)c2)ccc1OC(F)F (centres unmarked) [Example 100, 2-(3,4-dichlorophenyl)-N-[4-(difluoromethoxy)-3-methoxybenzyl]-4-(6-fluoro-1-methyl-2-oxo-1,2-dihydro-1′H-spiro[3,1-benzoxazine-4,4′-piperidin]-1′-yl)-N-methyl-butanamide]	2.6 nM
CN(Cc1cccc(F)c1)C(=O)C(CCN1CCC2(CC1)OC(=O)N(C)c1ccc(F)cc12)c1ccc(Cl)c(Cl)c1 (centres unmarked) [Example 101, 2-(3,4-dichlorophenyl)-N-(3-fluorobenzyl)-4-(6-fluoro-1-methyl-2-oxo-1,2-dihydro-1′H-spiro[3,1-benzoxazine-4,4′-piperidin]-1′-yl)-N-methyl-butanamide]	1.3 nM
CN1C(=O)OC2(CCN(CCC(C(=O)NCc3cccc(OC(F)(F)F)c3)c3ccc(Cl)c(Cl)c3)CC2)c2cc(F)ccc21 (centres unmarked) [Example 103, 2-(3,4-dichlorophenyl)-4-(6-fluoro-1-methyl-2-oxo-1,2-dihydro-1′H-spiro[3,1-benzoxazine-4,4′-piperidin]-1′-yl)-N-[3-(trifluoromethoxy)benzyl]butanamide]	3.7 nM
CN(Cc1cccc(C(F)(F)F)c1)C(=O)C(CCN1CCC2(CC1)OC(=O)N(C)c1ccc(F)cc12)c1ccc(Cl)c(Cl)c1 (centres unmarked) [Example 104, 2-(3,4-dichlorophenyl)-4-(6-fluoro-1-methyl-2-oxo-1,2-dihydro-1′H-spiro[3,1-benzoxazine-4,4′-piperidin]-1′-yl)-N-methyl-N-[3-(trifluoromethyl)benzyl]butanamide]	1.6 nM
CN(Cc1ccc(F)cc1)C(=O)C(CCN1CCC2(CC1)OC(=O)N(C)c1ccc(F)cc12)c1ccc(Cl)c(Cl)c1 (centres unmarked) [Example 105, 2-(3,4-dichlorophenyl)-N-(4-fluorobenzyl)-4-(6-fluoro-1-methyl-2-oxo-1,2-dihydro-1′H-spiro[3,1-benzoxazine-4,4′-piperidin]-1′-yl)-N-methyl-butanamide]	1 nM
CN1C(=O)OC2(CCN(CCC(C(=O)NCc3ccc(F)cc3)c3ccc(Cl)c(Cl)c3)CC2)c2cc(F)ccc21 (centres unmarked) [Example 106, 2-(3,4-dichlorophenyl)-N-(4-fluorobenzyl)-4-(6-fluoro-1-methyl-2-oxo-1,2-dihydro-1′H-spiro[3,1-benzoxazine-4,4′-piperidin]-1′-yl)-butanamide]	2.7 nM
COc1ccc(CNC(=O)C(CCN2CCC3(CC2)OC(=O)N(C)c2ccc(F)cc23)c2ccc(Cl)c(Cl)c2)cc1 (centres unmarked) [Example 107, 2-(3,4-dichlorophenyl)-4-(6-fluoro-1-methyl-2-oxo-1,2-dihydro-1′H-spiro[3,1-benzoxazine-4,4′-piperidin]-1′-yl)-N-(4-methoxybenzyl)butanamide]	5.4 nM
CN1C(=O)OC2(CCN(CCC(C(=O)NCc3cccc(C(F)(F)F)c3)c3ccc(Cl)c(Cl)c3)CC2)c2cc(F)ccc21 (centres unmarked) [Example 108, 2-(3,4-dichlorophenyl)-4-(6-fluoro-1-methyl-2-oxo-1,2-dihydro-1′H-spiro[3,1-benzoxazine-4,4′-piperidin]-1′-yl)-N-[3-(trifluoromethyl)benzyl]butanamide]	3 nM
CN1C(=O)OC2(CCN(CCC(C(=O)NCc3ccc(OC(F)(F)F)cc3)c3ccc(Cl)c(Cl)c3)CC2)c2cc(F)ccc21 (centres unmarked) [Example 110, 2-(3,4-dichlorophenyl)-4-(6-fluoro-1-methyl-2-oxo-1,2-dihydro-1′H-spiro[3,1-benzoxazine-4,4′-piperidin]-1′-yl)-N-[4-(trifluoromethoxy)benzyl]butanamide]	3.2 nM
CN1C(=O)OC2(CCN(CCC(C(=O)NCc3ccc(C#N)cc3)c3ccc(Cl)c(Cl)c3)CC2)c2cc(F)ccc21 (centres unmarked) [Example 111, N-(4-cyanobenzyl)-2-(3,4-dichlorophenyl)-4-(6-fluoro-1-methyl-2-oxo-1,2-dihydro-1′H-spiro[3,1-benzoxazine-4,4′-piperidin]-1′-yl)butanamide]	3.1 nM
O=C1Nc2ccc(F)cc2C2(CCN(CCCC(C(=O)NCc3ccccc3OC(F)(F)F)c3ccc(Cl)c(Cl)c3)CC2)O1 (centres unmarked) [Example 118, 2-(3,4-dichlorophenyl)-5-(6-fluoro-2-oxo-1,2-dihydro-1′H-spiro[3,1-benzoxazine-4,4′-piperidin]-1′-yl)-N-[2-(trifluoromethoxy)benzyl]pentanamide]	64.4 nM
